Measurements taken from US6669945B1, “Universal T-cell epitopes for anti-malarial vaccines” (New York University, priority 1997, dated 2003).
Where two headings read alike, the source gives them in different places. Where no end group is shown, it is not given here. The star is where a group is joined. Biotin = O=C1N[C@H]2[C@H](CS[C@H]2CCCCC(=O)*)N1

Assays:
[1] = tested on: EBV-B cell line 9065 (DRB1*1301/DQB1*0603); test: Flow cytometry binding of biotinylated peptides to EBV-B cells; parameters: species or system human; settings: biotinylated peptide, EBV-B 9065 cells
Description: For flow cytometry, EBV-B cells or L cells (2×10^5 cells), were incubated with an equal volume (100 μl) of biotinylated peptide (200 μg/ml) in each well of a U-bottomed 96-well plate. Following a 4-hour incubation on ice with gentle agitation, the unbound peptides were removed by washing. To increase the sensitivity of the fluorescent signal, two layers of FITC-Avidin were used to label the cells by incubating first with FITC-Avidin D, followed by biotinylated anti-Avidin D and again FITC-Avidin DCS (Vetor, Burlingame Calif.). Propidium Iodide (2.8 μg/ml) was added prior to FACS analysis to allow gating on viable cells.

DR 3 (DRB1*0301) = molecular target: T1, DR 3 (DRB1*0301) (Homo sapiens, UniProt P01903+P01911, A100K/A102G/A103R/A169T/F55Y/I96L/K41T/L162R/M171V/P40S/Q125H/Q178H/Q39Y/R42S/S66N/T106N/T262R/W38E/Y61H); test: biochemical; format: binding; settings: DR 3 DRB1*0301, biotinyl-peptide IAYD(A)5; read-out: Competitor Peptide IC50
T1 construct: The class II molecules in the cell extracts were purified by immunoaffnity; endogenous in cells

DR 13 (DRB1*1301) = DR 13 (DRB1*1301) (Homo sapiens, UniProt P01903+P01911, A100E/A169T/K41T/L162R/M171V/P40S/Q125H/Q178H/Q39Y/Q99D/R42S/S66N/T262R/W38E/Y61H); test: biochemical; settings: soluble DR 13, indicator GFK(A)7 (FIG. 2B); read-out: IC50, inhibition of binding of biotinylated GFK(A)7
DR 11 (5) (DRB1*1101) = DR 11 (5) (DRB1*1101) (Homo sapiens, UniProt P01903+P01911, A100R/A169T/A87E/I96F/K41T/L162R/M171V/P40S/Q125H/Q178H/Q39Y/Q99D/R42S/S66Y/T262R/V115G/W38E); test: biochemical; format: binding; settings: DR 11 (5) DRB1*1101, biotinyl-peptide TT831-843; read-out: Competitor Peptide IC50
DR 4 (DRB1*0401) = molecular target: T2, DR 4 (DRB1*0401) (Homo sapiens, UniProt P01903+P01911, A100K/A169T/F76Y/I96L/K127E/L162R/M171V/N62H/P40V/Q125Y/R42H/S133A/S149N/S66Y/V115G/V209L/W38E); test: biochemical; format: binding
T2 construct: The class II molecules in the cell extracts were purified by immunoaffnity; endogenous in cells

DR 2 (DRB5*0101) = molecular target: T3, DR 2 (DRB5*0101) (Homo sapiens, UniProt P01903+Q30154); test: biochemical; format: binding; settings: DR 2 DRB5*0101, biotinyl-peptide MBP; read-out: Competitor Peptide IC50
T3 construct: expressed in transfected cells; host or cells: L cell transfectant L416.3

DR 8 (DRB1*0801) = DR 8 (DRB1*0801) (Homo sapiens, UniProt P01903+P01911, A100R/A103L/A169T/D86S/F76Y/H45Y/I96F/K41T/L162R/M171V/P40S/Q125H/Q178H/Q39Y/Q99D/R218S/R42G/S66Y/V115G/W38E); test: biochemical; format: binding; settings: DR 8 DRB1*0801, biotinyl-peptide GYR(A)6L; read-out: Competitor Peptide IC50
DR 1 (DRB1*0101) = molecular target: T4, DR 1 (DRB1*0101) (Homo sapiens, UniProt P01903+P01911, A100R/D57E/F55L/F60I/F76Y/I96L/L162R/M171V/P40L/Q125E/R42F/V115G/Y59C); test: biochemical; format: binding; settings: DR 1 DRB1*0101, biotinyl-peptide GFK(A)7; read-out: Competitor Peptide IC50
T4 construct: The class II molecules in the cell extracts were purified by immunoaffnity; endogenous in cells

DR 7 (DRB1*0701) = DR 7 (DRB1*0701) (Homo sapiens, UniProt P01903+P01911, A100R/A102G/A103Q/D57E/D86V/E43K/F76Y/K127E/L162R/M171V/P40G/Q125H/Q99D/R33Q/R42Y/R54Q/S133A/S66F/T210M/V115G/Y107V/Y59L/Y89S); test: biochemical; format: binding; settings: DR 7 DRB1*0701, biotinyl-peptide GFK(A)7, pH 5; read-out: Competitor Peptide IC50
[2] = molecular target: DQ 7 (DQA1*0501/DQB1*0301) (Homo sapiens, UniProt P01909+P01920); test: Peptide competition assay, soluble DQ molecules; format: binding; settings: soluble DQ 7 (FIG. 3B)
[3] = molecular target: T5, DQ 9 (DQA1*0201/DQB1*0303) (Homo sapiens, UniProt P01909+P01920, A45G/C70K/E183D/E77G/F237L/F77L/G63E/H199R/I129T/K197E/L178F/L74F/Q57E/Q76R/R75H/S185I/S97I/T217I/V73L/Y48F/Y58L); test: Peptide competition assay, soluble DQ molecules; format: binding; settings: soluble DQ 9 (FIG. 3A)
T5 construct: made in house; host or cells: insect cells, baculovirus expression system

Molecule: Biotinyl-T1: NH2 terminal biotinylated T1 peptide (Biotin-DPNANPNVDPNANPNV)
- MFC [1]: could not be detected

Molecule: CC(C)[C@H](NC(=O)[C@H](CC(N)=O)NC(=O)[C@@H]1CCCN1C(=O)[C@H](CC(N)=O)NC(=O)[C@H](C)NC(=O)[C@H](CC(N)=O)NC(=O)[C@@H]1CCCN1C(=O)[C@H](CC(=O)O)NC(=O)[C@@H](NC(=O)[C@H](CC(N)=O)NC(=O)[C@@H]1CCCN1C(=O)[C@H](CC(N)=O)NC(=O)[C@H](C)NC(=O)[C@H](CC(N)=O)NC(=O)[C@@H]1CCCN1C(=O)[C@@H](N)CC(=O)O)C(C)C)C(=O)O [T1]
- IC50 (DR 3 (DRB1*0301)): > 100 µM
- IC50 (DR 13 (DRB1*1301)): > 100 µM
- IC50 (DR 11 (5) (DRB1*1101)): > 100 µM
- IC50 (DR 4 (DRB1*0401); DR 4 DRB1*0401, biotinyl-peptide UD4, read-out: Competitor Peptide IC50): > 100 µM
- IC50 (DR 4 (DRB1*0401); soluble DR 4, indicator GFK(A)7 (FIG. 2A), read-out: IC50, inhibition of binding of biotinylated GFK(A)7): > 100 µM
- IC50 (DR 2 (DRB5*0101)): > 100 µM
- IC50 (DR 8 (DRB1*0801)): > 100 µM
- IC50 (DR 1 (DRB1*0101)): > 100 µM
- IC50 (DR 7 (DRB1*0701)): > 100 µM

Molecule: CSCC[C@H](NC(=O)[C@H](CCCNC(=N)N)NC(=O)[C@H](CCSC)NC(=O)[C@H](CCCCN)NC(=O)[C@H](CO)NC(=O)[C@@H](NC(=O)[C@@H]1CCCN1C(=O)[C@H](CCCCN)NC(=O)[C@@H]1CCCN1C(=O)[C@@H]1CCCN1C(=O)[C@@H](N)CCCCN)C(C)C)C(=O)N[C@@H](C)C(=O)N[C@H](C(=O)N1CCC[C@H]1C(=O)N[C@@H](CC(C)C)C(=O)N[C@@H](CC(C)C)C(=O)N[C@@H](CCSC)C(=O)N[C@@H](CCC(N)=O)C(=O)N[C@@H](C)C(=O)O)[C@@H](C)O [CLIP83-101]
- IC50 [2]: 0.5 µM
- IC50 [3]: 0.5 µM
